The NIST ThermoML archive (doi:10.1016/j.fluid.2015.04.017)
± gives the expanded uncertainty stated by the source.

Columns and labels:
[1] = refractive index (Na D-line) (dimensionless); details: 298.15 K; 101.33 kPa; Liquid; Standard Abbe refractometry
[2] = 298.15 K, 101.33 kPa, Liquid; for viscosity: Concentric cylinders viscometry; for mass density: Vibrating tube method
[3] = xn = mol fraction of the nth substance listed; details: 101 kPa, Liquid, x2 = 0; for viscosity: Concentric cylinders viscometry; for mass density: Vibrating tube method
[4] = refractive index (Na D-line) (dimensionless); xn = mol fraction of the nth substance listed; details: 101 kPa, Liquid, Standard Abbe refractometry, x2 = 0

CCC(C)=O [butanone]
Details | mass density [kg/m3] | refractive index | viscosity [mPa·s]
[1] | – | 1.37662 ± 0.00033 | –
[2] | 800.872 ± 0.14 | – | 0.3888 ± 0.0057

CN1CCCC1=O [N-methylpyrrolidone] + CCOC(=O)C(C)O
Details | mass density, [3] [kg/m3] | refractive index, [4] | viscosity, [3] [mPa·s]
288.15 K | 1039.4 ± 0.1 | 1.47305 ± 0.00033 | 2.088 ± 0.02
293.15 K | 1034.92 ± 0.099 | 1.47088 ± 0.00033 | 1.91 ± 0.018
298.15 K | 1030.45 ± 0.096 | 1.4687 ± 0.00033 | 1.757 ± 0.017
303.15 K | 1025.99 ± 0.094 | 1.46651 ± 0.00033 | 1.623 ± 0.016
308.15 K | 1021.52 ± 0.092 | 1.46434 ± 0.00033 | 1.505 ± 0.015
313.15 K | 1017.07 ± 0.09 | 1.46211 ± 0.00033 | 1.401 ± 0.014
318.15 K | 1012.61 ± 0.088 | 1.45998 ± 0.00033 | 1.307 ± 0.013
323.15 K | 1008.16 ± 0.086 | 1.45783 ± 0.00033 | 1.231 ± 0.013

CCC(C)=O [butanone] + CCOC(=O)C(C)O
Details | mass density, [3] [kg/m3] | refractive index, [4] | viscosity, [3] [mPa·s]
288.15 K | 811.324 ± 0.14 | 1.3817 ± 0.00033 | 0.4217 ± 0.0059
293.15 K | 806.111 ± 0.14 | 1.37918 ± 0.00033 | 0.4054 ± 0.0058
298.15 K | 800.872 ± 0.14 | 1.37662 ± 0.00033 | 0.3888 ± 0.0057
303.15 K | 795.603 ± 0.14 | 1.37402 ± 0.00033 | 0.3712 ± 0.0055
308.15 K | 790.3 ± 0.14 | 1.37138 ± 0.00033 | 0.3542 ± 0.0054
313.15 K | 784.965 ± 0.15 | 1.36871 ± 0.00033 | 0.3368 ± 0.0053
318.15 K | 779.589 ± 0.15 | 1.36615 ± 0.00033 | 0.3194 ± 0.0052
323.15 K | 774.175 ± 0.15 | 1.36338 ± 0.00033 | 0.3036 ± 0.0051

CN1CCCC1=O [N-methylpyrrolidone]
Details | mass density [kg/m3] | refractive index | viscosity [mPa·s]
[1] | – | 1.4687 ± 0.00033 | –
[2] | 1030.45 ± 0.099 | – | 1.757 ± 0.017

Cc1ccccc1 [toluene] + CCOC(=O)C(C)O
Details | mass density, [3] [kg/m3] | refractive index, [4] | viscosity, [3] [mPa·s]
288.15 K | 871.501 ± 0.12 | 1.49883 ± 0.00033 | 0.6251 ± 0.0075
293.15 K | 866.859 ± 0.12 | 1.49592 ± 0.00033 | 0.5961 ± 0.0072
298.15 K | 862.206 ± 0.12 | 1.49299 ± 0.00033 | 0.567 ± 0.007
303.15 K | 857.541 ± 0.12 | 1.49012 ± 0.00033 | 0.54 ± 0.0068
308.15 K | 852.861 ± 0.13 | 1.48731 ± 0.00033 | 0.5128 ± 0.0066
313.15 K | 848.164 ± 0.13 | 1.48454 ± 0.00033 | 0.4866 ± 0.0064
318.15 K | 843.444 ± 0.13 | 1.48195 ± 0.00033 | 0.462 ± 0.0062
323.15 K | 838.707 ± 0.13 | 1.47928 ± 0.00033 | 0.4435 ± 0.0061

CCOC(=O)C(C)O (racemic) [DL-ethyl lactate]
Details | mass density [kg/m3] | refractive index | viscosity [mPa·s]
[1] | – | 1.41076 ± 0.00037 | –
[2] | 1028.39 ± 0.25 | – | 2.39 ± 0.025

Cc1ccccc1 [toluene]
Details | mass density [kg/m3] | refractive index | viscosity [mPa·s]
[1] | – | 1.49299 ± 0.00033 | –
[2] | 862.206 ± 0.12 | – | 0.567 ± 0.007
